Laboratory results from US20040162353A1 (priority 2000, published 2004).
Several values for one entry are separate records, joined by “and”; a condition that tells them apart may be missing. Equal values may be shown once. Entries after “also recorded” stand apart in the source; their conditions may differ.

Legend:
[1] = test system: PSMA messenger RNA in LNCaP prostate cancer cell line; details: LNCaP cells after exposure to DHT; cited from earlier work
ODC = target: T1, ODC (Homo sapiens, UniProt P11926); details: concentrations from 0.6 μM to 80 μM; three separate studies; cited from earlier work
T1 sequence (P11926 1-461): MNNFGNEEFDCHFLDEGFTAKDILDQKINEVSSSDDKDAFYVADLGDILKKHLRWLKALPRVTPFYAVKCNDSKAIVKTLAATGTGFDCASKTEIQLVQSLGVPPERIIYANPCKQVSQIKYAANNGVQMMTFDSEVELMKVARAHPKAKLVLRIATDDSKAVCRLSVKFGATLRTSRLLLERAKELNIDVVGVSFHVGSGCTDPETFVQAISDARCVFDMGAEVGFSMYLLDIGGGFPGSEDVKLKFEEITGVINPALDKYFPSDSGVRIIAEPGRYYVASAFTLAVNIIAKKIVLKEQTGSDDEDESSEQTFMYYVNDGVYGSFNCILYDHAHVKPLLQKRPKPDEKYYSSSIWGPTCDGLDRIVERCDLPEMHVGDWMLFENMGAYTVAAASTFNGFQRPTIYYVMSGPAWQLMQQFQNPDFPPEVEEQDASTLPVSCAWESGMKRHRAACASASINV

PSA = test: Serum PSA in men taking oral DFMO; type: in vivo, human
Excerpt: (§1) This protocol was approved by the investigational review board of the University of California Irvine and the Long Beach Veterans Administration Medical Center. Men between the ages of 50 and 85, who were undergoing a trans-rectal prostate needle biopsy for either an elevated PSA or abnormal rectal exam, signed a written consent to undergo four additional core needle biopsies of the peripheral zone at the time of their, routine extant biopsy. The additional four biopsies were immediately frozen liquid nitrogen and stored in the minus 70-degree freezer. The […] biopsy was sent to Pathology for routine analysis. […] Patients were monitored for side effects using questionnaires and interview techniques. Coagulation parameters were carefully assessed prior to surgery. In the operating room just prior to the surgical procedure four trans-rectal core biopsies of the peripheral zone were taken and frozen. The pre and post DFMO specimens were sent together to Arizona on dry ice for histology and polyamine analysis. Radical prostatectomy specimens were staged according to the TMN updated 1997 staging system (American Joint Committee on Cancer 1997).

[2] = test system: polyamines (putrescine, spermidine, spermine) in the human prostate; test: Prostate core biopsy polyamine content before and after 28 days of oral DFMO; type: in vivo; details: oral DFMO 0.5 gm/m^2 for 28 days
Excerpt: This protocol was approved by the investigational review board of the University of California Irvine and the Long Beach Veterans Administration Medical Center. Men between the ages of 50 and 85, who were undergoing a trans-rectal prostate needle biopsy for either an elevated PSA or abnormal rectal exam, signed a written consent to undergo four additional core needle biopsies of the peripheral zone at the time of their, routine extant biopsy. The additional four biopsies were immediately frozen liquid nitrogen and stored in the minus 70-degree freezer. The […] biopsy was sent to Pathology for routine analysis. […] Patients were monitored for side effects using questionnaires and interview techniques. Coagulation parameters were carefully assessed prior to surgery. In the operating room just prior to the surgical procedure four trans-rectal core biopsies of the peripheral zone were taken and frozen. The pre and post DFMO specimens were sent together to Arizona on dry ice for histology and polyamine analysis. Radical prostatectomy specimens were staged according to the TMN updated 1997 staging system (American Joint Committee on Cancer 1997). To determine prostate core polyamine contents, cores were first thawed, washed in phosphate buffered saline (PBS) and weighted. Samples were then minced in 0.2 N perchloric acid and sonicated to disrupt cellular material. Samples were centrifuged at 2,000×g for 5 minutes to separate acid soluble and insoluble fractions. The acid soluble fraction was evaluated for polyamine contents, using reverse-phase, ion-pared high performance liquid chromatography (PHLC) methods, as described elsewhere ([…] et al. 1994; […] et al 1994; […] et al. 1998). Briefly, polyamines are separated on a C18 B Ondapak column, derivatized with […] separation and detected by absorption of the derivatized material at 750 nm. Mean, median, and range for polyamine levels are reported in nmol/mg protein. The limit of detection of our method is 0.01 nmol/mg. Histological Changes were assessed by bright field microscopy methods. Pre- and post DFMO polyamine values were compared using the Wilcoxon matched-pairs signed rank test. Thus, for each patient we were able to take into account both the magnitude and the direction of changes in polyamines due to DFMO.

prostate tumor = details: rat, in vivo, ip; cited from earlier work
[3] = test system: matrilysin expression in LNCaP human prostate cancer derived cells; test: IL-1β-induced matrilysin expression in LNCaP cells; type: cell-based
Excerpt: As indicated earlier, DFMO acts late in the tumor promotion stage of epithelial carcinogenesis.

mouse epidermis = details: topically applied five percent solution of DFMO; cited from earlier work
cutaneous spermine = details: ten percent DFMO cream; ten patients suffering from psoriasis; cited from earlier work
[4] = test system: human prostate polyamine levels and ODC activity; details: cited from earlier work
[5] = test system: tumors harboring Ki-ras mutations; details: AOM-treated rats; reduced from 90%; cited from earlier work
prostatic ODC = target: T2, prostatic ODC (Rattus norvegicus, UniProt P09057); details: cited from earlier work
T2 construct: from tissue; host or cells: rat prostate (animals treated in vivo with DFMO)
T2 sequence (P09057 1-461): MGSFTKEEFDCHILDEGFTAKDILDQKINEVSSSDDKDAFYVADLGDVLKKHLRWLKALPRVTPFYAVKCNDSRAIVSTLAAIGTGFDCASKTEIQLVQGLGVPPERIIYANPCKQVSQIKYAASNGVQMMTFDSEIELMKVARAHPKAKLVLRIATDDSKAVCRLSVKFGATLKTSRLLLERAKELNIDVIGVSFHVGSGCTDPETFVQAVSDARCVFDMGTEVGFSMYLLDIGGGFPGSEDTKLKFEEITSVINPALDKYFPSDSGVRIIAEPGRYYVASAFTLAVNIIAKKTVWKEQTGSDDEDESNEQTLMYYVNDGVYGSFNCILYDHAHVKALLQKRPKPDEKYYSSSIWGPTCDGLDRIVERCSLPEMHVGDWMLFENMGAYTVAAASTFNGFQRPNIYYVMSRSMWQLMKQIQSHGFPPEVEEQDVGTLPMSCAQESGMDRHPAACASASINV

[6] = Side effects and coagulation parameters in men taking oral DFMO; type: in vivo, human
Excerpt: as §1

[7] = test system: polyamines in rat prostate; details: two weeks of 100 mg/kg DFMO, cited from earlier work
prostate cancer [8] = details: one year of Proscar; 1 of 25 men with no treatment; p=0.025; cited from earlier work
prostate cancer [9] = details: oral fenretinide; 22 men at high risk; trial closed early; cited from earlier work
[10] = two weeks of DFMO 0.5 gm/m^2 orally
[11] = oral DFMO 0.5 gm/m^2, about 28 days

For `C[C@]12CCC(=O)C[C@@H]1CC[C@@H]1[C@@H]2CC[C@]2(C)[C@@H](O)CC[C@@H]12` [5-α-dihydroxytestosterone], the “down-regulation of PSMA mRNA” value [1] is listed as 8-10 fold.

For `NCCC[C@@](N)(C(=O)O)C(F)F` [D-DFMO], the “inhibition of ODC activity” value (ODC) is given as “inhibitory”.

For `NCCC[C@](N)(C(=O)O)C(F)F` [DFMO, alpha-difluoromethylornithine], the “inhibition of ODC activity” value (ODC) is given as “inhibitory”, the “PSA change on DFMO, patients with malignant pathology” value (PSA; five patients, increase in patients 3,8,9) is given as “increased in 3 of 5” and the “PSA change on DFMO, patients with final benign pathology” value (PSA; four patients (1,4,5,7), pre-biopsy or pre-DFMO PSA vs PSA on DFMO) is given as “decreased in each patient”. The “Pre-op PSA” value (PSA; individual patients 1-9, drawn while on DFMO) was 3.7 ng/ml and 7.5 ng/ml and 2.5 ng/ml and 1.4 ng/ml and 5 ng/ml and 2.3 ng/ml and 6.8 ng/ml and 35.5 ng/ml and 8.2* ng/ml, the “range of spermine level after DFMO” value ([2]; n=9) was 3.24 to 25.58 nmol/mg and the “spermidine average percent decrease from baseline” value ([2]; n=9, p=0.004) was 73.6% and 74%. The “spermine average decrease from baseline” value ([2]; n=9, p=0.004) was 50.8% and 51%, the “average level of spermine after DFMO” value ([2]; n=9, pre-DFMO average 29.14) was 14.33 nmol/mg and the “median level of spermine after DFMO” value ([2]; n=9, pre-DFMO median 28.85) was 17.40 nmol/mg. For the same compound, the “average level of spermidine after therapy” value ([2]; n=9, pretreatment average 1.21) was 0.32 nmol/mg, the “median level of spermidine after therapy” value ([2]; n=9, pretreatment median 0.81) was 0.21 nmol/mg and the “putrescine level after DFMO” value ([2]; prostate core biopsy, all nine men, detection limit 0.01 nmol/mg) was “undetectable”. The “putrescine average decrease from baseline” value ([2]; six men with pre-DFMO putrescine ≧0.01, p=0.031) was 97.6% and 98%, the systemic toxicity (prostate tumor) was “no systemic toxicity” and the “interleukin-1β (IL-1β)-induced matrilysin expression” value [3] was “suppresses”. The “spermine and spermidine levels” value (mouse epidermis) was “not affected”, the “improvement in psoriatic lesions” value (cutaneous spermine) was “marginal improvement” and the “reduction of cutaneous spermine levels” value (cutaneous spermine) was “sixty-six percent”. The toxicity ([4]; fourteen men completed two weeks of DFMO) was “no toxicity”, the “ODC activity, DFMO vs placebo” value ([4]; two weeks of DFMO 0.5 gm/m^2) was “no differences” and the “mean putrescine level in prostate cores” value ([4]; two weeks of DFMO 0.5 gm/m^2, placebo 1.95, p=0.03) was 1.43. For the same compound, the “spermidine level, DFMO vs placebo” value [4, 10] was “no differences; also recorded: failed to detect any reduction”, the “spermine level, DFMO vs placebo” value [4, 10] was “no differences; also recorded: failed to detect any reduction” and the “number of tumors harboring Ki-ras mutations” value [5] was 36%. For the same compound, the “prostatic ODC reduction compared to control” value (prostatic ODC; by 24 hrs, 100 mg/kg every 12 hrs i.p.) was 50%, the “sustained suppression of prostatic ODC activity, remaining activity” value (prostatic ODC; throughout the two week study) was 50 % of baseline activity and the “bleeding time prior to surgery” value [6, 11] was “not altered”. For the same compound, the “change in platelet counts or protime” value [6, 11] was “no clinically significant change”, the “men reporting side effects” value ([6]; oral DFMO 0.5 gm/m^2, average 28.2 days, grade 0 to 1) was “four men” and the “putrescine in rat prostate after DFMO” value ([7]; control 202±37) was 4 ± 4 nmol/g. For the same compound, the “spermine in rat prostate after DFMO” value ([7]; control 2968±293, no significant reduction) was 2741±346 and the “spermidine in rat prostate after DFMO” value ([7]; control 7334±193) was 1188±289.

In the case of `NCCC[C@](N)(C(=O)O)C(F)F` [L-DFMO], the “inhibition of ODC activity” value (ODC) is given as “inhibitory”.

In the case of `CC(C)(C)NC(=O)[C@H]1CC[C@H]2[C@@H]3CC[C@H]4NC(=O)C=C[C@]4(C)[C@H]3CC[C@]12C` [Proscar, finasteride], the “men with cancer diagnosed at one year follow up biopsy” value (prostate cancer [8]) is given as 8 of 27.

In the case of `CC1=C(/C=C/C(C)=C/C=C/C(C)=C/C(=O)Nc2ccc(O)cc2)C(C)(C)CCC1` [fenretinide], the “men with negative prestudy biopsies who developed malignancy while on study” value (prostate cancer [9]) is listed as 8 men.

In the case of `CN1C(C(=O)Nc2ccccn2)=C(O)c2ccccc2S1(=O)=O` [piroxicam], the “number of tumors harboring Ki-ras mutations” value [5] is given as 25%.
